Legend:
Type in all cases: cell-based
PI3Kα = PI3Kα (Homo sapiens, UniProt P42336); test: PI3K isoform assay, pAKT Thr308 ELISA in BT474 cells; settings: geometric mean; Supplementary Table 1; read-out: Compound IC50 PI3K (first PI3K line)
Experimental: (§1) BT474 (PI3Kα), MDA-MB-468 (PI3Kβ), RAW-264 (PI3Kγ) and JEKO-1 (PI3Kδ). Levels of phospho-AKT Thr308, a downstream target for PI3K, was used as a marker of PI3K […]
(§2) BT474 and MDA -MB-468 cells were seeded into 384-well plates
(§3) (5600 cells/well) and incubated overnight prior to compound treatment for 2 hours. […]
(§4) Compounds were added to […]
(§5) cells/plates using an Echo 555 Liquid Handler (LabCyte). BT474 and MDA -MB-468 cells were lysed in 25 µL lysis buffer (25 mM Tris-HCl, 3 mM EDTA, 3 mM EGTA, 50 mM NaF, 2 mM Na3VO4, 0.27 M sucrose, 10 mM β-glycerophosphate, 5 mM Na2P2O7, 0.5% Triton […]
(§6) X-100) for 30 minutes at RT. […]
(§7) Lysates were transferred onto ELISA plates pre-coated with anti-AKT antibody (Cell Signalling #7144) that had previously been blocked with 1% BSA in PBS-T and incubated overnight at 4°C. Plates were then incubated with mouse anti-phosphoAKT Thr308 (Cell Signalling Technology #7144) for 2 hours, followed by an anti-mouse HRP-conjugated antibody (Cell Signalling Technology #7144) for 2 hours. Plates were washed between antibody incubation steps with PBS-T. QuantaBlu substrate working solution […]
(§8) (ThermoScientific #15169) was added to each well according to the manufacturer’s instructions and stop solution was added 60 minutes later. Fluorescence was measured

PI3Kγ = biological target: T1, PI3Kγ (Mus musculus, UniProt Q9JHG7); test: PI3K isoform assay, pAKT Thr308 ELISA in RAW-264 cells; settings: geometric mean; Supplementary Table 1; read-out: Compound IC50 PI3K (third PI3K line)
T1 construct: RAW-264 (PI3Kγ); endogenous in cells; host or cells: RAW-264
Experimental: as §1
RAW-264 and JEKO-1 cells were seeded directly into 384-well plates containing compounds (1 x 10^5 cells/well) and incubated for 1 hour. Compounds were added to cells/plates using an Echo 555 Liquid Handler (LabCyte). […]
as §7, with “X-100) for 30 minutes at RT. To stimulate AKT phosphorylation, C5a (complement 5a) anaphylatoxin trifluoroacetate salt (20 nM; Bachem) was added to RAW-264 cells for 3 minutes and anti-human IgM (120 µg/mL; Stratech) was added to JEKO-1 cells for 10 minutes prior to cell lysis. RAW-264 and JEKO-1 cells were then lysed for 30 minutes at RT. Lysates” for “Lysates”
as §8

mTOR = biological target: T2, mTOR (Homo sapiens, UniProt P42345); test: mTOR (pAKT Ser473) imaging assay in MDA-MB-468 cells; settings: geometric mean; Supplementary Table 1; read-out: Compound IC50 mTOR
T2 construct: mTOR (pAKT Ser473) in MDA-MB-468; endogenous in cells; host or cells: MDA-MB-468

ATM = biological target: T3, ATM (Homo sapiens, UniProt Q13315); test: ATM pSer1981 imaging assay in irradiated HT29 cells; settings: geometric mean; Supplementary Table 1; read-out: Compound IC50 ATM
T3 construct: ATM (pATM Ser1981) in HT29; endogenous in cells; host or cells: HT-29
Experimental: Following this final incubation, the plates were washed twice using PBS, s ealed with black plate seals and then read on a CellInsight™ imaging platform (Thermo Scientific) with 10x objective. A two-laser setup was used to analyse nuclear staining with Hoechst (405 nm) and secondary antibody staining of pATM (488 nm). […]

ATR = biological target: T4, ATR (Homo sapiens, UniProt Q13535); test: ATR (pCHK1 Ser345) imaging assay in 4NQO-treated HT29 cells; settings: geometric mean; Supplementary Table 1; read-out: Compound IC50 ATR
T4 construct: ATR (pCHK1 Ser345) in HT29; endogenous in cells; host or cells: HT-29
Experimental: HT-29 cells by an imaging-based assay. HT-29 cells were dispensed into 384-well Greiner plates (#781090) to give 6000 cells/well in a total volume of 40 µL cell media and incubated overnight. Test compounds and reference controls were dosed directly into the cell plates using a Labcyte Echo 555 acoustic dispenser. The cell plates were then incubated for 1 hour at 37°C before being dosed with 3 µM of 4NQO using a Labcyte Echo 555 acoustic dispenser. The cells were incubated for a further 1 h our and were then fixed by the addition of 20 µL 3.7% formaldehyde in PBS and incubated for 20 min utes at RT. The plates were subsequently washed on a Bioteck EL406 3x using PBS-T, and then permeabilized with the addition of 20 µL of 0.1% Triton X-100 in PBS for 10 minutes at RT. Following permeabilization, the plates were washed 3x with PBST and incubated with 20 µL of primary antibody (1:250 anti-Chk1 pSer345 in PBS-T) overnight at 4°C. The next day, the plates were washed 3x with PBS and incubated with 20 µL of secondary antibody (1:500 AlexaFluor 488 goat anti-rabbit IgG and 1:5000 Hoechst stock solution [10 mg/mL ] in antibody buffer) for 2 hours at RT. Following this final incubation, the plates were washed 3x with PBS, sealed with black plate seals and then read on a CellInsight imaging platform (Thermo Scientific) with 10x objective. A two -laser setup was used to analyse nuclear staining with Hoechst (405 nm) and secondary antibody staining of pChk1 (488 nm). […]

DNA-PKcs = biological target: T5, DNA-PKcs (Homo sapiens, UniProt P78527); test: DNA-PKcs autophosphorylation (pSer2056) ELISA in IR-treated A549 cells; settings: geometric mean; Supplementary Table 1; read-out: Compound IC50 DNA-PKcs
T5 construct: evaluated in A549 cells following IR by measuring DNA-PKcs autophosphorylation on Ser2056; endogenous in cells; host or cells: A549

PI3Kβ = biological target: T6, PI3Kβ (Homo sapiens, UniProt P42338); test: PI3K isoform assay, pAKT Thr308 ELISA in MDA-MB-468 cells; settings: geometric mean; Supplementary Table 1; read-out: Compound IC50 PI3K (second PI3K line)
T6 construct: MDA-MB-468 (PI3Kβ); endogenous in cells; host or cells: MDA-MB-468
Experimental: as §1, §2, §3, §4, §5, §6, §7, §8

PI3Kδ = biological target: T7, PI3Kδ (Homo sapiens, UniProt O00329); test: PI3K isoform assay, pAKT Thr308 ELISA in JEKO-1 cells; settings: geometric mean; Supplementary Table 1; read-out: Compound IC50 PI3K (fourth PI3K line)
T7 construct: JEKO-1 (PI3Kδ) cells; endogenous in cells; host or cells: JEKO-1
Experimental: as §1
as §5, with “RAW-264 and JEKO-1 cells were seeded directly into 384-well plates containing compounds (1 x 10^5 cells/well) and incubated for 1 hour. Compounds were added to cells/plates” for “cells/plates”
as §6
3 minutes and anti-human IgM (120 µg/mL; Stratech) was added to JEKO-1 cells for 10 minutes prior to cell lysis. RAW-264 and JEKO-1 cells were then lysed for 30 minutes at RT. Lysates were transferred onto ELISA plates pre-coated with anti-AKT antibody (Cell Signalling #7144) that had previously been blocked with 1% BSA in PBS-T and incubated overnight at 4°C. Plates were then incubated with mouse anti-phosphoAKT Thr308 (Cell Signalling Technology #7144) for 2 hours, followed by an anti-mouse HRP-conjugated antibody (Cell Signalling Technology #7144) for 2 hours. […]
as §8

[1] = tested on: secondary pharmacology target; test: Cellular selectivity across secondary pharmacology targets; settings: versus cellular DNA-PKcs

T4 sequence (Q13535 whole entry): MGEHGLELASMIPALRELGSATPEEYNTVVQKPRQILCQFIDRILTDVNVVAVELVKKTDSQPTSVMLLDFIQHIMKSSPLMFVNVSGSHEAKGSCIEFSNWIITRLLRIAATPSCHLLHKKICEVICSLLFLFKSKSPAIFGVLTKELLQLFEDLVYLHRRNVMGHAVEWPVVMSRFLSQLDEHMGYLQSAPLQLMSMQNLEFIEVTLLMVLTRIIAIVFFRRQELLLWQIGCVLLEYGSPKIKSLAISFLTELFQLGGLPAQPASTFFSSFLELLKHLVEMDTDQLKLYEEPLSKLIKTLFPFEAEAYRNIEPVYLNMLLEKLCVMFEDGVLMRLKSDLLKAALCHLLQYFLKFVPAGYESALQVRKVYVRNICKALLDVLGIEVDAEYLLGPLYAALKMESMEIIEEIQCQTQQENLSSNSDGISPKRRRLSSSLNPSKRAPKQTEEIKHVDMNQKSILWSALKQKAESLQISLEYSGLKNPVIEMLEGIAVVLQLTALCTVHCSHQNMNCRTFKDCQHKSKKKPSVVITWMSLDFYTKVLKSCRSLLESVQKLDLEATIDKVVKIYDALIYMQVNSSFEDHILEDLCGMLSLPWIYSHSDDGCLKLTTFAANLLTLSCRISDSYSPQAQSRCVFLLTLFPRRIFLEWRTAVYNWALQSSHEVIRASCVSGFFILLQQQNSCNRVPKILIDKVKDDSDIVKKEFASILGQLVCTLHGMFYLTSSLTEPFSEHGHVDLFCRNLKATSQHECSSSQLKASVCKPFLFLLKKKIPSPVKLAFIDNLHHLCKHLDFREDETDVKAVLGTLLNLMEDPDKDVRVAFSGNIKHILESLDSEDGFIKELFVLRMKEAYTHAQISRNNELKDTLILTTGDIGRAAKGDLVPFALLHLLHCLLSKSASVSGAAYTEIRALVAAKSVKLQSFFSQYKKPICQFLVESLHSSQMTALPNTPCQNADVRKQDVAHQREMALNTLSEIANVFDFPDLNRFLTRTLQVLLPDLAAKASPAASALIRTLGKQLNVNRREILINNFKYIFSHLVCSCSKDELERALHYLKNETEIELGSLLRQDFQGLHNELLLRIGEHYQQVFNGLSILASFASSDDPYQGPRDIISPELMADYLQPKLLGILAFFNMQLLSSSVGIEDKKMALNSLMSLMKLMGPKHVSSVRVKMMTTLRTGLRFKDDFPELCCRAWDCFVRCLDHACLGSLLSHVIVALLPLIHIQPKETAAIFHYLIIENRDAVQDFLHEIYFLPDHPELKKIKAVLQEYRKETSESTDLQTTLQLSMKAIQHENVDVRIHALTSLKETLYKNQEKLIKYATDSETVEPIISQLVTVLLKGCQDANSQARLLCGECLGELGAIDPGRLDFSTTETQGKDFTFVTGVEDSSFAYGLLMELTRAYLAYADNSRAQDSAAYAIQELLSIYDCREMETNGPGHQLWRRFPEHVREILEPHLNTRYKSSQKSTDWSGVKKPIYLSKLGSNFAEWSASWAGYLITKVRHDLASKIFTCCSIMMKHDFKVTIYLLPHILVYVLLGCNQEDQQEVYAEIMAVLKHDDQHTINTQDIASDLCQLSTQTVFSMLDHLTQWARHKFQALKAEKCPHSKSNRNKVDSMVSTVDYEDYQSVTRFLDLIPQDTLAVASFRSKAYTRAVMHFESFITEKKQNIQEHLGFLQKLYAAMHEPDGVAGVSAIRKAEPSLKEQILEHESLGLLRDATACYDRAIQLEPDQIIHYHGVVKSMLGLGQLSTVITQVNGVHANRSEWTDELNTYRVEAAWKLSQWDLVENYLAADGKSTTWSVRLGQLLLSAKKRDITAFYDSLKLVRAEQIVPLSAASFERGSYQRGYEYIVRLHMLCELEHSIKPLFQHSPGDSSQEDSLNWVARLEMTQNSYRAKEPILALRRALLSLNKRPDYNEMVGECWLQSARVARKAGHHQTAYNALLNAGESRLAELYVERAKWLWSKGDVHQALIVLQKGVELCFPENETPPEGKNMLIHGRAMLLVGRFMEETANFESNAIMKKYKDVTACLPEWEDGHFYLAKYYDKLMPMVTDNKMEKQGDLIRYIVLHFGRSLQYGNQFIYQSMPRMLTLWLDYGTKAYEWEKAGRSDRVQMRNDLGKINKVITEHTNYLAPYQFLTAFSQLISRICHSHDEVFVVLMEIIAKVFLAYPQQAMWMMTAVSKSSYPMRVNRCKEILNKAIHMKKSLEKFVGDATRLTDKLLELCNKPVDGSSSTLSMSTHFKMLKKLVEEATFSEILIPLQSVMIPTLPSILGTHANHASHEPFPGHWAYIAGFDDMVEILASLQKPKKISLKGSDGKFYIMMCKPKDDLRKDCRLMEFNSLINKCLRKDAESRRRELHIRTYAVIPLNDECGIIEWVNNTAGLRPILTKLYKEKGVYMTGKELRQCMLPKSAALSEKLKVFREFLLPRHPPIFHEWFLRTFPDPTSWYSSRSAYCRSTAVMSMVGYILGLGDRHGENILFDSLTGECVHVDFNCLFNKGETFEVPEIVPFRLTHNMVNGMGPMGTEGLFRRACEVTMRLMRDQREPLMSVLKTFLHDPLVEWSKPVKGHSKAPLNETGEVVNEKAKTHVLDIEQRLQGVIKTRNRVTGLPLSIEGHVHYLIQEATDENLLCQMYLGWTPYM
T4 sequence (Q8WXE1 whole entry partner): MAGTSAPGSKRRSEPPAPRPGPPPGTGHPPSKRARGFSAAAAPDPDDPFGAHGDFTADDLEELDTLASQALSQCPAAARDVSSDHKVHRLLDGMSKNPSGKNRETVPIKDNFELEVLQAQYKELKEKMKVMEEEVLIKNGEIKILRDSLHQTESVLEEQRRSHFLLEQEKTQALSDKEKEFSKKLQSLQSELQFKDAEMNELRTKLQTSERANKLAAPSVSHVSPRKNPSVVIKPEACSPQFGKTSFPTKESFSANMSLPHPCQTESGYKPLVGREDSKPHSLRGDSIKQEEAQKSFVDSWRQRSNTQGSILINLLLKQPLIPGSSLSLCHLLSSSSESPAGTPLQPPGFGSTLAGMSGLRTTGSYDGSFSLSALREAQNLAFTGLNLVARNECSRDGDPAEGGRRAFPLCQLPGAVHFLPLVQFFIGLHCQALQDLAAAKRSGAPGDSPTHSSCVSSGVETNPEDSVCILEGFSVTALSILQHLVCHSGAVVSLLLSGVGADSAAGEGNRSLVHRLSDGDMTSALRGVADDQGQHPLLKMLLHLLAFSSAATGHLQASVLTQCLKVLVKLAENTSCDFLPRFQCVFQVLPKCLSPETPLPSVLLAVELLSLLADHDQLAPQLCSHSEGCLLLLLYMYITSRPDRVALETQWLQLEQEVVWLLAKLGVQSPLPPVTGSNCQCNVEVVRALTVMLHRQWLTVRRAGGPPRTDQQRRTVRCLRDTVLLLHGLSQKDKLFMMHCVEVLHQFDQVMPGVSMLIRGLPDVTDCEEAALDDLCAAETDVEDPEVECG
PI3Kα, sequence (P42336 187-1068 limits assumed): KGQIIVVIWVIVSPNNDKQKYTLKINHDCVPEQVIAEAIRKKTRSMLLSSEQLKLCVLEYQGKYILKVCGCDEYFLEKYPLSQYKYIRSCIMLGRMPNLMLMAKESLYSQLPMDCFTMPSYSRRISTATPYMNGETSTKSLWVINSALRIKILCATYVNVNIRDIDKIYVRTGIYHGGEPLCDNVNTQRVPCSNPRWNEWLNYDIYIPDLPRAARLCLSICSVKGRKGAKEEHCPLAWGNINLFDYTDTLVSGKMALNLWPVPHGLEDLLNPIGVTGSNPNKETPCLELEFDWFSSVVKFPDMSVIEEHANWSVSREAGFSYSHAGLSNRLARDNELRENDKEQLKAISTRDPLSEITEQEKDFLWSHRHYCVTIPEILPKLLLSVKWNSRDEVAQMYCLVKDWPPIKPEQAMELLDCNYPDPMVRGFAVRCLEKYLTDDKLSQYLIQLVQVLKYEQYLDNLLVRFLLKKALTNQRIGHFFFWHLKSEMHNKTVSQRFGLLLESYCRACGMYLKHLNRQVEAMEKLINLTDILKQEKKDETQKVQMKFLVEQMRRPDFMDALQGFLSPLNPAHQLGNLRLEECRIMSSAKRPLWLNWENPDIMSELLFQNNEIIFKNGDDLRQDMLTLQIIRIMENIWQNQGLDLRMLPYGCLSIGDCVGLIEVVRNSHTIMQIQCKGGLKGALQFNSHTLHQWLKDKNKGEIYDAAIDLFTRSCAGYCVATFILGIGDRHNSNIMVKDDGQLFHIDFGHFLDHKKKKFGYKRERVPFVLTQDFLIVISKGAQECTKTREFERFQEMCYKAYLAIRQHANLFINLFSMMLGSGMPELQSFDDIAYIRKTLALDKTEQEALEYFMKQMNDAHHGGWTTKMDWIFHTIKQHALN

Compound | IC50 (PI3Kα) [µM] | IC50 (PI3Kγ) [µM] | IC50 (mTOR) [µM] | IC50 (ATM) [µM] | IC50 (ATR) [µM] | IC50 (DNA-PKcs) [µM] | IC50 (PI3Kβ) [µM] | IC50 (PI3Kδ) [µM] | selectivity in at least one secondary pharmacology target [1] [fold]
CNC(=O)c1ccnc2c([C@H](C)CNc3cc(-c4cnc(C)nc4)ncn3)cccc12 [M9831/VX-984] | > 20 | 7.1 | > 30 | > 30 | > 30 | 0.115 | > 30 | > 30 | –
O=c1cc(N2CCOCC2)oc2c(-c3cccc4c3sc3ccccc34)cccc12 [NU7441] | 7.8 | – | 1.8 | > 3.1 | > 30 | 0.185 | – | – | < 10
COc1ccc([C@@H](O)c2cc(-c3ncnc4cc(N5CCOCC5)ccc34)c(F)cc2Cl)nn1 [M3814] | – | 1.59 | – | > 30 | > 30 | – | – | – | –
CCN1CCN(CC(=O)Nc2ccc(-c3cccc4c(=O)cc(N5CCOCC5)oc34)c3sc4ccccc4c23)CC1 [KU-0060648] | 0.2 | – | 0.15 | > 30 | > 30 | 0.055 | – | – | < 10

Source: PMC6838110 (Nature Communications, 2019)
